Experimental data as given in patent publication US8088930B2, “Benzimidazole derivatives” (Hoffmann-La Roche Inc., priority 2008, dated 2012).

biological target: T1, FXR ligand binding domain (GST-FXR LBD fusion protein, human FXR aa 193-473) (Homo sapiens, UniProt Q96RI1); assay: Radioligand binding assay (scintillation proximity, radioligand displacement); conditions: 40 nM GST-FXR LBD on SPA beads, test compound 6×10^−9 M to 2.5×10^−5 M, read-out: h-IC50 Binding
T1 construct: fused on or other part: Glutathione-S-transferase (GST) fused N-terminally to the FXR LBD, used to capture the protein on glutathione SPA beads
T1 sequence (Q96RI1 211-486 limits assumed): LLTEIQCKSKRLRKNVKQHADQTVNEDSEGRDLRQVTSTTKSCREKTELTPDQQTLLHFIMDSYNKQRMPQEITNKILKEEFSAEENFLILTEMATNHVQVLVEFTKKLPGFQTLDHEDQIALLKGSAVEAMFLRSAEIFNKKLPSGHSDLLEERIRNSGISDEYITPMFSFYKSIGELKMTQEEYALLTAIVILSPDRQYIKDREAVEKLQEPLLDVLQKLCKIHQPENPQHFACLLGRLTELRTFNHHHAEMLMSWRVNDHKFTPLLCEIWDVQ
Outline: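 40 nM GST-FXR LBD, E. coli-expressed, bound to glutathione yttrium silicate SPA beads in 50 mM Hepes pH 7.4, 10 mM NaCl, 5 mM MgCl2, 0.01% CHAPS. Test compounds displace radioligand (e.g. 20 nM benzimidazolyl-acetamide ligand); bound ligand measured by scintillation proximity counting.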

| SMILES | IC50 [nM] |
| --- | --- |
| O=C(O)c1ccc(OCC(C2CCCCC2)n2c(-c3ccc(Cl)cc3)nc3cc(F)c(F)cc32)c(C(F)(F)F)c1 (single isomer, unassigned; (-)) [Example 41, (−)-4-{2-[2-(4-Chloro-phenyl)-5,6-difluoro-benzoimidazol-1-yl]-2-cyclohexyl-ethoxy}-3-trifluoromethyl-benzoic acid] | 70 |
| CC(OCC(C1CCCCC1)n1c(-c2ccc(Cl)cc2)nc2cc(F)c(F)cc21)c1ccc(C(=O)O)cc1 (centres unmarked) [Example 79, 4-(1-{2-[2-(4-Chloro-phenyl)-5,6-difluoro-benzoimidazol-1-yl]-2-cyclohexyl-ethoxy}-ethyl)-benzoic acid] | 600 |
| Cc1ccc(C(=O)O)cc1OCC(C1CCCCC1)n1c(-c2ccc(Cl)cc2)nc2cc(F)c(F)cc21 (centres unmarked) [Example 16, 3-{2-[2-(4-Chloro-phenyl)-5,6-difluoro-benzoimidazol-1-yl]-2-cyclohexyl-ethoxy}-4-methyl-benzoic acid] | 200 |
| Fc1cc2nc(-c3ccc(Cl)cc3)n(C(COc3ccccn3)C3CCCCC3)c2cc1F (centres unmarked) [Example 29, 2-(4-Chloro-phenyl)-1-[1-cyclohexyl-2-(pyridin-2-yloxy)-ethyl]-5,6-difluoro-1H-benzoimidazole] | 200 |
| O=C(O)c1ccc(OCC(C2CCCCC2)n2c(-c3ccc(Cl)cc3)nc3cc(F)c(F)cc32)cc1 (centres unmarked) [Example 4, 4-{2-[2-(4-Chloro-phenyl)-5,6-difluoro-benzoimidazol-1-yl]-2-cyclohexyl-ethoxy}-benzoic acid] | 70 |
| O=C(O)c1ccc(OCC(C2CCCCC2)n2c(-c3ccc(Cl)cc3)nc3cc(F)c(F)cc32)c(F)c1 (single isomer, unassigned; (+)) [Example 9, (+)-4-{2-[2-(4-Chloro-phenyl)-5,6-difluoro-benzoimidazol-1-yl]-2-cyclohexyl-ethoxy}-3-fluoro-benzoic acid] | 100 |
| O=C(O)C1CCC(NCC(C2CCCCC2)n2c(-c3ccc(Cl)cc3)nc3cc(F)c(F)cc32)CC1 (single isomer, unassigned) [Example 138, (+) or (−)-4-{2-[2-(4-Chloro-phenyl)-5,6-difluoro-benzoimidazol-1-yl]-(2-trans-cyclohexyl-ethylamino}-cyclohexanecarboxylic acid] | 300 |
| O=C(O)c1ccc(OCC(C2CCCCC2)n2c(-c3ccc(Cl)cc3)nc3cc(F)c(F)cc32)c(C(F)(F)F)c1 (single isomer, unassigned; (+)) [Example 40, (+)-4-{2-[2-(4-Chloro-phenyl)-5,6-difluoro-benzoimidazol-1-yl]-2-cyclohexyl-ethoxy}-3-trifluoromethyl-benzoic acid] | 100 |
| O=C(O)c1ccc(SCC(C2CCCCC2)n2c(-c3ccc(Cl)cc3)nc3cc(F)c(F)cc32)cc1 (centres unmarked) [Example 140, 4-{2-[2-(4-Chloro-phenyl)-5,6-difluoro-benzoimidazol-1-yl]-2-cyclohexyl-ethylsulfanyl}-benzoic acid] | 70 |

Stronger by IC50, values ahead:

| IC50 [nM] | SMILES |
| --- | --- |
| 40 | Cc1cc(C(=O)O)cc(C)c1OCC(C1CCCCC1)n1c(-c2ccc(Cl)cc2)nc2ccccc21 (centres unmarked) [Example 105, 4-{2-[2-(4-Chloro-phenyl)-benzoimidazol-1-yl]-2-cyclohexyl-ethoxy}-3,5-dimethyl-benzoic acid] |
| 20 | O=C(O)c1cnc(OCC(C2CCCCC2)n2c(-c3ccc(Cl)cc3)nc3cc(F)c(F)cc32)c(Cl)c1 (single isomer, unassigned; (+)) [Example 23, (+)-5-Chloro-6-{2-[2-(4-chloro-phenyl)-5,6-difluoro-benzoimidazol-1-yl]-2-cyclohexyl-ethoxy}-nicotinic acid] |
| 4 | O=C(O)c1cc(F)c(OCC(C2CCCCC2)n2c(-c3ccc(Cl)cc3)nc3cc(F)c(F)cc32)c(Cl)c1 (centres unmarked) [Example 76, 3-Chloro-4-{2-[2-(4-chloro-phenyl)-5,6-difluoro-benzoimidazol-1-yl]-2-cyclohexyl-ethoxy}-5-fluoro-benzoic acid] |
| 10 | Cc1cc(-c2nnn[nH]2)cc(C)c1OCC(C1CCCCC1)n1c(-c2ccc(Cl)cc2)nc2cc(F)c(F)cc21 (centres unmarked) [Example 70, 2-(4-Chloro-phenyl)-1-{1-cyclohexyl-2-[2,6-dimethyl-4-(1H-tetrazol-5-yl)-phenoxy]-ethyl}-5,6-difluoro-1H-benzoimidazole] |
| 10 | O=C(O)c1cc(F)c(OCC(C2CCCCCC2)n2c(-c3ccc(Cl)cc3)nc3cc(F)c(F)cc32)c(F)c1 (single isomer, unassigned; (-)) [Example 132, (−)-4-{2-[2-(4-Chloro-phenyl)-5,6-difluoro-benzoimidazol-1-yl]-2-cycloheptyl-ethoxy}-3,5-difluoro-benzoic acid] |
